Reference: the Deep4Chem optical property database
Each block holds one compound with its values, some of them ahead of it.

Test: photoluminescence quantum yield (fraction); solvent given as SMILES
[1] = in c1cc(-c2cccc(-n3c4ccccc4c4ccccc43)c2)cc(-n2c3ccccc3c3ccccc32)c1

SMILES: CCCCN1C(=O)c2cc(Oc3ccc(C(C)(C)C)cc3)c3c4c(Oc5ccc(C(C)(C)C)cc5)cc5c(=O)n6c(c7cc(Oc8ccc(C(C)(C)C)cc8)c(c8c(Oc9ccc(C(C)(C)C)cc9)cc(c2c38)C1=O)c4c57)=Cc1cccc[n+]1[B-]6(F)F
photoluminescence quantum yield (in C1CCOC1): 0.564
photoluminescence quantum yield (in Cc1ccccc1): 0.451
photoluminescence quantum yield (in ClCCl): 0.5

SMILES: COc1cccc(C2=C(c3ccc(C(C)(C)C)cc3)C(c3ccc(C(C)(C)C)cc3)=[N+]3C2=C(c2ccccc2)c2c(-c4cccc(OC)c4)c(-c4ccc(C(C)(C)C)cc4)c(-c4ccc(C(C)(C)C)cc4)n2[B-]3(F)F)c1
photoluminescence quantum yield (in C1CCCCC1): 0.44
photoluminescence quantum yield (in C1CCOC1): 0.45
photoluminescence quantum yield (in CC#N): 0.38
photoluminescence quantum yield (in Cc1ccccc1): 0.54
photoluminescence quantum yield (in ClCCl): 0.58

SMILES: O=S1(=O)c2ccccc2C2(c3cc(-c4ccc(-n5c6ccccc6c6ccccc65)cc4)ccc3-c3ccc(-c4ccc(-n5c6ccccc6c6ccccc65)cc4)cc32)c2ccccc21
photoluminescence quantum yield (in ClCCl): 0.81
photoluminescence quantum yield (in c1cc(-n2c3ccccc3c3ccccc32)cc(-n2c3ccccc3c3ccccc32)c1): 0.86

SMILES: Oc1ccccc1-c1nc2c3ccccc3c3ccccc3c2n1-c1ccccc1
photoluminescence quantum yield (in Cc1ccccc1): 0.001

SMILES: Fc1cc(-c2ccc(-c3nc4cc(Br)ccc4[nH]3)cc2)ccc1-c1ccc(-c2nc3cc(Br)ccc3[nH]2)cc1
photoluminescence quantum yield (in CN(C)C=O): 0.48

SMILES: c1ccc(N(c2ccccc2)c2ccc3c4cccc5c(N(c6ccccc6)c6ccccc6)ccc(c6cccc2c63)c54)cc1
photoluminescence quantum yield (in ClCCl): 0.65

SMILES: O=P1(c2ccccc2)C(c2cc(C(F)(F)F)cc(C(F)(F)F)c2)=Cc2c3ccc4cccc5ccc(c6cc(-c7ccc(N(c8ccccc8)c8ccccc8)cc7)n1c26)c3c45 (centres undefined)
photoluminescence quantum yield (in C1CCCCC1): 0.44
photoluminescence quantum yield (in C1CCOC1): 0.17
photoluminescence quantum yield (in C1COCCO1): 0.48
photoluminescence quantum yield (in CC#N): 0.004
photoluminescence quantum yield (in CC(C)=O): 0.11
photoluminescence quantum yield (in CO): 0.004
photoluminescence quantum yield (in Cc1ccccc1): 0.49
photoluminescence quantum yield (in ClC(Cl)Cl): 0.49
photoluminescence quantum yield (in ClCCl): 0.23

SMILES: O=C(c1ccncc1)c1ccc(-n2c3ccccc3c3cc(-n4c5ccccc5c5ccccc54)ccc32)cc1
photoluminescence quantum yield (in Cc1ccccc1): 0.178
photoluminescence quantum yield [1]: 0.72

SMILES: Cc1c(C)c(B(c2c(C)c(C)c(N3c4ccccc4Oc4ccccc43)c(C)c2C)c2c(C)c(C)c(N3c4ccccc4Oc4ccccc43)c(C)c2C)c(C)c(C)c1C#N
photoluminescence quantum yield (in c1ccc([Si](c2ccccc2)(c2ccc(-n3c4ccccc4c4ccccc43)cc2)c2ccc(-n3c4ccccc4c4ccccc43)cc2)cc1): 0.75

SMILES: COc1cc2cc(OC)c(-c3ccc([N+](=O)[O-])cc3)cc2cc1-c1ccc([N+](=O)[O-])cc1
photoluminescence quantum yield (in ClC(Cl)Cl): 0.01
photoluminescence quantum yield (in ClCCl): 0.009

SMILES: COc1ccc(C#Cc2ccc(C#Cc3ccc(C#Cc4ccccc4C#N)cc3C#N)cc2C#N)cc1
photoluminescence quantum yield (in C1CCOC1): 0.972
photoluminescence quantum yield (in CC#N): 0.973
photoluminescence quantum yield (in CN(C)C=O): 0.949
photoluminescence quantum yield (in ClC(Cl)Cl): 0.982
photoluminescence quantum yield (in c1ccccc1): 0.972

SMILES: COc1ccc2cc(/C=C/C3=[O+][B-](F)(F)OC(/C=C/c4ccc5cc(OC)ccc5c4)=C3c3ccccc3)ccc2c1
photoluminescence quantum yield (in ClCCl): 0.51

SMILES: CCN1\C(=C/C=C/C=C/C2=[N+](CC)c3ccc4cc(Br)ccc4c3C2(C)C)C(C)(C)c2c1ccc1cc(Br)ccc21
photoluminescence quantum yield (in CS(C)=O): 0.381

SMILES: CCC1=C(C)C2=Cc3cccn3[B-](F)(F)[N+]2=C1C
photoluminescence quantum yield (in C1CCCCC1): 0.7
photoluminescence quantum yield (in CC(C)=O): 0.65
photoluminescence quantum yield (in CCO): 0.69
photoluminescence quantum yield (in CCOC(C)=O): 0.69
photoluminescence quantum yield (in CO): 0.6
photoluminescence quantum yield (in OCC(F)(F)F): 0.49

SMILES: Cc1ccc2c3ccc(C)cc3c3cc4c(C)cc(=O)oc4cc3c2c1
photoluminescence quantum yield (in ClC(Cl)Cl): 0.11

SMILES: CCOC(=O)/C(C#N)=C/c1cc2c3ccccc3n(C)c2cc1OC
photoluminescence quantum yield (in C1CCOC1): 0.001
photoluminescence quantum yield (in CC#N): 0.003
photoluminescence quantum yield (in CCOC(C)=O): 0.004
photoluminescence quantum yield (in CN(C)C=O): 0.005
photoluminescence quantum yield (in CO): 0.003
photoluminescence quantum yield (in CS(C)=O): 0.01
photoluminescence quantum yield (in Cc1ccccc1): 0.003
photoluminescence quantum yield (in ClC(Cl)Cl): 0.004
photoluminescence quantum yield (in ClCCl): 0.003

SMILES: CC(C)c1cccc(C(C)C)c1N1C(=O)c2ccc3cc4c(cc5ccc6c7c(ccc4c57)C(=O)N(c4c(C(C)C)cccc4C(C)C)C6=O)c4ccc(c2c34)C1=O
photoluminescence quantum yield (in ClCCl): 0.53

SMILES: CC(C)(C)c1cc(-c2cc3nc4c5ccc(N6c7ccccc7Oc7ccccc76)cc5c5cc(N6c7ccccc7Oc7ccccc76)ccc5c4nc3cc2-c2cc(C(C)(C)C)cc(C(C)(C)C)c2)cc(C(C)(C)C)c1
photoluminescence quantum yield (in c1ccc2c(c1)c1ccccc1n2-c1ccc(-c2ccc(-n3c4ccccc4c4ccccc43)cc2)cc1): 0.83

SMILES: O=C1c2cc(-n3c4ccccc4c4ccccc43)ccc2S(=O)(=O)c2ccc(-n3c4ccccc4c4ccccc43)cc21
photoluminescence quantum yield [1]: 0.348

SMILES: CCCCCCCCn1c(=O)c2cc3cc4cc5c(=O)n(CCCCCCCC)c(=O)c5cc4c(C#Cc4ccc(N(c5ccccc5)c5ccccc5)cc4)c3cc2c1=O
photoluminescence quantum yield (in ClC(Cl)Cl): 0.39

SMILES: COc1ccc(-c2c3cc4ccccc4cc3c(-c3ccc(OC)cc3)c3cc4ccccc4cc23)cc1
photoluminescence quantum yield (in ClCCl): 0.09

SMILES: CC[C@H](C)[C@H](Nc1c(C(C)=O)c(=O)oc2cc(N(C)C)ccc12)C(=O)O
photoluminescence quantum yield (in ClCCl): 0.0031

SMILES: COc1ccc2c(c1)CCc1c(-c3ccccc3)c3n(c1-2)[B-](F)(F)[N+]1=C2C(=C(c4ccccc4)C1=N3)CCc1ccccc12
photoluminescence quantum yield (in ClC(Cl)Cl): 0.32

SMILES: CN(C)c1ccc(/C=C/c2ccnc(/C=C/c3ccc(N(C)C)cc3)n2)cc1
photoluminescence quantum yield (in ClCCl): 0.04

SMILES: CCCCCCOc1ccc(C#Cc2ccc(-c3ccc(-c4ccc(C#Cc5ccc(OCCCCCC)c(OCCCCCC)c5)s4)c4nsnc34)s2)cc1OCCCCCC
photoluminescence quantum yield (in C1CCCCC1): 0.54
photoluminescence quantum yield (in CCOC(C)=O): 0.46
photoluminescence quantum yield (in CN(C)C=O): 0.24
photoluminescence quantum yield (in COc1ccccc1): 0.48
photoluminescence quantum yield (in Cc1ccccc1): 0.55
photoluminescence quantum yield (in ClC(Cl)Cl): 0.43
photoluminescence quantum yield (in ClCCCl): 0.34
photoluminescence quantum yield (in ClCCl): 0.35

SMILES: FC(F)(F)c1ccc(C2=CC3=c4cc(-c5ccc(C(F)(F)F)cc5)c5nc(C(F)(F)C(F)(F)C(F)(F)F)nc6c(-c7ccc(C(F)(F)F)cc7)cc(c4c65)C4=CC(c5ccc(C(F)(F)F)cc5)=C5N=C(C(F)(F)C(F)(F)C(F)(F)F)N=C2C5C43)cc1 (centres undefined)
photoluminescence quantum yield (in C1CCOC1): 0.96

SMILES: O=c1oc2ccc(Br)cc2cc1-c1cc2cc(Br)ccc2o1
photoluminescence quantum yield (in CS(C)=O): 0.2

SMILES: N#Cc1ccc(N)c2nonc12
photoluminescence quantum yield (in C1COCCO1): 0.218
photoluminescence quantum yield (in CC#N): 0.105
photoluminescence quantum yield (in CCCCCC): 0.329
photoluminescence quantum yield (in CCO): 0.059
photoluminescence quantum yield (in Cc1ccccc1): 0.304
photoluminescence quantum yield (in ClCCl): 0.195
photoluminescence quantum yield (in O): 0.002

SMILES: CN(C)c1ccc(/C=C/c2cccnn2)cc1
photoluminescence quantum yield (in ClCCl): 0.02

SMILES: CCCCCN(c1ccccc1)c1ccc2c(c1)C(CC)(CC)c1cc(/C=C/c3ccc(/C=C(\C#N)C(=O)O)s3)ccc1-2
photoluminescence quantum yield (in C1CCOC1): 0.405
photoluminescence quantum yield (in C1COCCO1): 0.969
photoluminescence quantum yield (in CC#N): 0.025
photoluminescence quantum yield (in CC(C)=O): 0.223
photoluminescence quantum yield (in CCOC(C)=O): 0.801
photoluminescence quantum yield (in CN(C)C=O): 0.651
photoluminescence quantum yield (in CS(C)=O): 0.622
photoluminescence quantum yield (in ClCCl): 0.005

SMILES: COC(=O)c1ccc(/C=C/C(F)(F)F)c(N)c1
photoluminescence quantum yield (in C1CCOC1): 0.74

SMILES: N#C/C(=N/Nc1ccc(C#N)cc1)c1nc(-c2ccccc2)cs1
photoluminescence quantum yield (in CC#N): 0
photoluminescence quantum yield (in CCO): 0.0001
photoluminescence quantum yield (in CN(C)C=O): 0
photoluminescence quantum yield (in Cc1ccccc1): 0.0001
photoluminescence quantum yield (in ClCCl): 0.0001

SMILES: CCOC(=O)c1c2c3c(ccc(Br)c3c3cc4c(cc13)[Si](C)(C)O[Si]4(C)C)N(C)C2=O
photoluminescence quantum yield (in CC#N): 0.31

Continued, values first:

photoluminescence quantum yield (in ClCCl): 0.12
SMILES: C(=C\c1ncnc2ccccc12)/c1ccc(N2CCCCC2)cc1

photoluminescence quantum yield (in CS(C)=O): 0.05
SMILES: Cn1c(=O)c(/N=N/c2ccc(/N=N/c3ccc(S(=O)(=O)O)cc3)cc2)c(O)c2ccccc21

photoluminescence quantum yield (in C1CCOC1): 0.78
photoluminescence quantum yield (in C1COCCO1): 0.73
photoluminescence quantum yield (in CC#N): 0.7
photoluminescence quantum yield (in CC(C)O): 0.55
photoluminescence quantum yield (in CCO): 0.47
photoluminescence quantum yield (in CCOC(C)=O): 0.76
photoluminescence quantum yield (in CN(C)C=O): 0.87
photoluminescence quantum yield (in CO): 0.38
photoluminescence quantum yield (in CS(C)=O): 0.88
photoluminescence quantum yield (in O): 0.54
SMILES: COc1ccc(C2CC(c3ccc(O)cc3)=NN2c2ccc(S(N)(=O)=O)cc2)cc1 (centres undefined)

photoluminescence quantum yield (in ClCCl): 0.45
SMILES: F[B-]1(F)N2C=CN=CC2=[N+]2[N+]1=Cc1c(-c3ccccc3)cc(-c3cccs3)n1[B-]2(F)F

photoluminescence quantum yield (in CC#N): 0.71
SMILES: N#Cc1nn(-c2ccccc2C(F)(F)F)nc1N1CCCC1

photoluminescence quantum yield (in ClCCl): 0.46
SMILES: COc1ccc(-c2cc(-c3ccccc3)c3n2[B-](F)(F)[N+]2=C4C=NC=CN4[B-](F)(F)[N+]2=C3)cc1

photoluminescence quantum yield (in ClCCl): 0.16
SMILES: COc1ccc2cc(C#CC3=C4CCc5ccccc5C4=[O+][B-](F)(F)O3)ccc2c1

photoluminescence quantum yield (in CCO): 0.54
SMILES: COC(=O)C(CCCCNC(=O)CCNc1cccc2ccccc12)NC(C)=O (centres undefined)

photoluminescence quantum yield (in CCO): 0.22
photoluminescence quantum yield (in ClCCl): 0.78
SMILES: Clc1ncc(-c2c3ccccc3c(-c3cnc(Cl)nc3)c3ccccc23)cn1

photoluminescence quantum yield (in CO): 0.002
SMILES: N#Cc1c(-n2nnc3ccccc32)n([C@H]2C[C@H](O)[C@@H](CO)O2)c2ncnc(N)c12

photoluminescence quantum yield (in ClC(Cl)Cl): 0.046
SMILES: F[B-]1(F)OC(c2ccccc2)=Cc2c3ccccc3cc[n+]21

photoluminescence quantum yield (in c1ccccc1): 0.697
SMILES: Nc1ccc2nc(-c3ccccc3)c(=O)oc2c1

photoluminescence quantum yield (in CCO): 0.064
photoluminescence quantum yield (in ClCCl): 0.157
photoluminescence quantum yield (in O): 0.014
SMILES: CC[N+](CC)=c1ccc2c(C(F)(F)F)c3oc4cc(N)ccc4c3oc-2c1

photoluminescence quantum yield (in ClC(Cl)Cl): 0.452
SMILES: N#Cc1ccc(C#Cc2ccccc2C#N)cc1

photoluminescence quantum yield (in ClCCl): 0.82
SMILES: CCOC(=O)c1ccc(C2=Cc3ccccc3P2(=O)c2ccccc2)cc1 (centres undefined)

photoluminescence quantum yield (in CS(C)=O): 0.0094
SMILES: COC(=O)[C@@H]1C(=O)Oc2ccccc2[C@H]1c1c[nH]c2ccccc12

photoluminescence quantum yield (in C1CCCCC1): 0.38
photoluminescence quantum yield (in C1CCOC1): 0.34
photoluminescence quantum yield (in C1COCCO1): 0.26
photoluminescence quantum yield (in CC#N): 0.61
photoluminescence quantum yield (in CC(C)O): 0.53
photoluminescence quantum yield (in CCCCCC): 0.31
photoluminescence quantum yield (in CN(C)C=O): 0.57
photoluminescence quantum yield (in CO): 0.62
photoluminescence quantum yield (in ClC(Cl)Cl): 0.43
photoluminescence quantum yield (in c1ccccc1): 0.42
SMILES: CC1(C)CCc2c(c3ccccc3c3nc4c5c(c6ccccc6c4nc23)OC(C)(C)CC5)O1
